Measurements published in US10881699B2, “Cosmetic compositions” (Mary Kay Inc., priority 2014, dated 2021).

Assays:
[1] = system: procollagen peptide production by human epidermal fibroblasts; assay: Collagen stimulation assay, procollagen peptide ELISA; assay type: cell-based; conditions: treated for 3 days
Source text: Collagen Stimulation Assay:
Collagen is an extracellular matrix protein critical for skin structure. Increased synthesis of collagen helps improve skin firmness and elasticity. This bioassay can be used to examine the effect of any one of the active ingredients, combination of ingredients, or compositions having said combinations disclosed in the specification on the production of procollagen peptide (a precursor to collagen) by human epidermal fibroblasts. The endpoint of this assay is a spectrophotometric measurement that reflects the presence of procollagen peptide and cellular viability. The assay employs the quantitative sandwich enzyme immunoassay technique whereby a monoclonal antibody specific for procollagen peptide was been pre-coated onto a microplate. […] Following a wash to remove any unbound antibody-enzyme reagent, a substrate solution was added to the wells and color develops in proportion to the amount of procollagen peptide bound in the initial step using a microplate reader for detection at 450 nm. The color development was stopped and the intensity of the color was measured. […] Following incubation, cell culture medium was collected and the amount of procollagen peptide secretion quantified using a sandwich enzyme linked immuno-sorbant assay (ELISA) from Takara (#MK101).

[2] = target: T1, MMP9 (Homo sapiens, UniProt P14780); assay: Matrix metalloproteinase enzyme activity assay, MMP9; assay type: biochemical; conditions: thiopeptide chromogenic substrate
T1 construct: purchased BioMol International AK-410
T1 sequence (P14780 107-444 limits assumed): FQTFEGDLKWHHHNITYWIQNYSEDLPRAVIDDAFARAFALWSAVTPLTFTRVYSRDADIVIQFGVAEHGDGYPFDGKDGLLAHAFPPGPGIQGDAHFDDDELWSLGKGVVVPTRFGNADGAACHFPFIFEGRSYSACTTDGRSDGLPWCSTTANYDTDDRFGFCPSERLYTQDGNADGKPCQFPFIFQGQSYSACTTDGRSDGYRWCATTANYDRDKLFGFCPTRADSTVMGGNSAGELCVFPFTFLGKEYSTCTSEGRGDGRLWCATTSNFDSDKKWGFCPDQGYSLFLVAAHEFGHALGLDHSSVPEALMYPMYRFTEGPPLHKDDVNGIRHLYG
Source text: (§1) Matrix Metalloproteinase Enzyme Activity (MMP3; MMP9) Assay: An in vitro matrix metalloprotease (MMP) inhibition assay. MMPs are extracellular proteases that play a role in many normal and disease states by virtue of their broad substrate specificity. MMP3 substrates include collagens, fibronectins, and laminin; while MMP9 substrates include collagen VII, fibronectins and laminin. Using Colorimetric Drug Discovery kits from BioMol International for MMP3 (AK-400) and MMP-9 (AK-410), this assay is designed to measure protease activity of MMPs using a thiopeptide as a chromogenic substrate (Ac-PLG42-mercapto-4-methyl-pentanoylRG-OC2H5)5,6. The MMP cleavage site peptide bond is replaced by a thioester bond in the thiopeptide. Hydrolysis of this bond by an MMP produces a sulfhydryl group, which reacts with DTNB [5,5′-dithiobis(2-nitrobenzoic acid), Ellman's reagent] to form 2-nitro-5-thiobenzoic acid, which can be detected by its absorbance at 412 nm (c=13,600 M-1 cm-1 at pH 6.0 and above 7). The active ingredients, any one of the combination of ingredients, or compositions having said combinations disclosed in the specification can be assayed.

[3] = target: T2, MMP3 (Homo sapiens, UniProt P08254); assay: Matrix metalloproteinase enzyme activity assay, MMP3; assay type: biochemical; conditions: thiopeptide chromogenic substrate
T2 construct: purchased BioMol International AK-400
T2 sequence (P08254 100-272 limits assumed): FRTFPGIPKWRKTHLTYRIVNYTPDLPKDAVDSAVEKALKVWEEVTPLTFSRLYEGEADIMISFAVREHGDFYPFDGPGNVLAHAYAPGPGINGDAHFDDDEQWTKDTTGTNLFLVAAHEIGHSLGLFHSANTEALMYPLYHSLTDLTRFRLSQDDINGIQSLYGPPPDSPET
Source text: as §1

| Compound | % Increase of Type I Collagen Production [1] [%] | % MMP9 Activity [2] [%] | % MMP3 Activity [3] [%] |
| --- | --- | --- | --- |
| CCCCCCCCC(CCCCCC)C(=O)OC[C@H](OC(=O)C(CCCCCC)CCCCCCCC)[C@H]1OC(=O)C(OC(=O)C(CCCCCC)CCCCCCCC)=C1OC(=O)C(CCCCCC)CCCCCCCC (stereo partly shown) [Tetrahexyldecyl ascorbate] | 50 | 11 | 38 |
| Trifluoroacetyl tripeptide-2 | 23 |  |  |
